Data published in patent publication US6294568A, “5-arylpyrrole derivatives” (priority 1997, dated 2001).

How the values were obtained:
Human COX-1 = molecular target: T1, Human COX-1 (Homo sapiens, UniProt P23219); assay: Human COX-1 Inhibitory Activity Test (TXB2 in blood); format: cell-based; conditions: IC50 from Hill Plot
T1 construct: endogenous in cells; host or cells: whole blood of a healthy human donor (own knowledge: TXB2 of clotting blood comes from platelet COX-1)
Procedure: (§1) COX-1 and COX-2 activities were measured according to the method of Patrignani et al. (J. Pharm. Exp. Ther. Vol. 271, 1705 (1994)).
(1) COX-1 activity was measured in the following procedure. […] The serum obtained by 10 minutes of centrifugation at 2000 rpm at 4° C. was stored at -40° C. until the measurement of the amount of thromboxane B2 (TXB2). The test samples, which had been dissolved in ethanol and diluted to the specified concentrations, were previously dispensed into the glass test tubes, and the solvent was evaporated to dryness by Centrifugal Vaporizer (CVE-200D, manufactured by Tokyo Rika Mfg. Co., Ltd.) so that the test samples were added to the plasma.
(3) The measurement for the TXB2 content was conducted in the following procedure. In a part of a 96 well plate coated with anti-rabbit IgG antibody, 2 wells were allotted respectively to blank well, Non-specific Binding (NSB) well, Maximum Binding (B0) well, standard wells at 7 concentrations of TXB2 (1000 pg/ml) in doubling dilution ranging from 1000-15.6 pg/ml. The rest of the wells were used for the measurement of the samples. EIA buffer was added to the NSB wells (100 μl ) and B0 wells (50 μl), respectively. 50 μl of each of the standard dilution was added in an order from thinner to thicker concentrations. Each of the samples was added to the rest of the wells in an amount of 50 μl. Then, 50 μl of TXB2 tracer was added to each of the wells except for the blank wells. Further, 50 μl of TXB2 antibody was added to each of the wells except for the NSB wells and blank wells, then the well plate was covered with a plastic film and the reaction continued for 18 hours at room temperature. When the reaction was terminated, the wells were washed 5 times with a wash buffer. 200 μl of Elman's reagent was added to each of the wells and then the well plate was covered with a plastic film and developed for 60 minutes in a dark place. The absorbance at 405 nm was measured by an Immuno Reader (NJ-2000, manufactured by Nippon Intermed Co., Ltd.). From the measurement result, %B/B0 was calculated and, applying it to the approximation formula of Hill Plot, the concentration of the samples was determined to be 2,000 times concentration. […]

Human COX-2 = molecular target: T2, Human COX-2 (Homo sapiens, UniProt P35354); assay: Human COX-2 Inhibitory Activity Test (LPS-induced PGE2 in blood); format: cell-based; conditions: for IC50: human blood, LPS, PGE2, IC50 from Hill Plot; for COX-1/COX-2: ratio of IC50 COX-1 to COX-2
T2 construct: endogenous in cells; host or cells: heparinised whole blood of a healthy human donor pretreated with aspirin, stimulated with LPS (own knowledge: COX-2 is induced in monocytes)
T2 sequence (P35354 18-604): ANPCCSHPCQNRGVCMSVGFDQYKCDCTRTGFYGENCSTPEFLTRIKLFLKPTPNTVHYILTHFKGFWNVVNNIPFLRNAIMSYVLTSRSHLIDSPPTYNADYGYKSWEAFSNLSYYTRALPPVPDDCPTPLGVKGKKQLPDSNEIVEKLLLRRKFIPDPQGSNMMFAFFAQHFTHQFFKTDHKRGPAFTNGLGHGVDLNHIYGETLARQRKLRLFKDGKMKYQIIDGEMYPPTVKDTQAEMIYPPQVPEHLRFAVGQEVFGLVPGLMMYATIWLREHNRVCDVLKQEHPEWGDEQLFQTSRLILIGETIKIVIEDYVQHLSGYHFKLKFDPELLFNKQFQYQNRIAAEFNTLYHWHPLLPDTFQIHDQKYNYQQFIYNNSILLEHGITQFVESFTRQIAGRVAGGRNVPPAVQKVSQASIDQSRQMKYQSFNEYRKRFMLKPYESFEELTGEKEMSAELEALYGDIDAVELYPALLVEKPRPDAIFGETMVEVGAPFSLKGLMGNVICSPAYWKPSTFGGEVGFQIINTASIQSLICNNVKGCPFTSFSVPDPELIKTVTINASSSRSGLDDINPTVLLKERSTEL
Procedure: as §1
(2) COX-2 activity was measured in the following procedure. To blood collected from a healthy normal who had taken 330 mg of aspirin 48 hours before the blood collection in order to inhibit the COX-1 activity, 10 unit/ml of sodium heparin was added, and then pipetted into glass test tubes by 1 ml. 10 μg/ml of Lipopolysaccharide (LPS) was added thereto and the plasma obtained by the specified operation was stored at -40° C. until the measurement for the amount of prostaglandin E2 (PGE2). Test samples containing the test samples were treated in the same manner of operation as described above.
(4) The measurement for the PGE2 content was conducted in the following procedure. In a part of 96 well plate coated with goat anti-mouse antibody, 2 wells were alloted respectively to a blank well, Non-specific Binding (NSB) well, Maximum Binding (B0) well, standard wells at seven concentrations of PGE2 (1000 pg/ml) in doubling dilution ranging from 1000-15.6 pg/ml. The rest of the wells were used for the sample measurement. EIA buffer was added to the NSB wells (100 μl) and to the B0 wells (50 μl), respectively. 50 μl of each of the standard dilution was added in an order from thinner to thicker concentrations. Each of the samples was added to the rest of the wells in an amount of 50 μl. Then, 50 μl of PGE2 tracer was added to each of the wells except for blank wells. Further, 50 μl PGE2 monoclonal antibody was added to each of the wells except for the NSB wells and blank wells, then the well plate was covered with a plastic film and the reaction continued at room temperature for 18 hours. When the reaction was terminated, the wells were washed 5 times with a wash buffer. 200 μl of Elman's reagent was added to each of the wells, and then the well plate was covered with a plastic film and developed for 60 minutes in a dark place. The absorbance at 405 nm was measured by an Immuno Reader (NJ-2000, manufactured by Nippon Intermed Co., Ltd.). From the measurement result, %B/B0 was calculated and, applying it to the approximation formula of Hill Plot, the concentration of the samples was determined to be 40 times concentration. The dilution was conducted with an EIA buffer throughout the Test Example 3.

carrageenan footedema = assay: Carrageenan Footedema Suppression Test; format: in vivo, SD rats; conditions: oral; paw volume three hours after carrageenan administration
Procedure: The carrageenin footedema suppression test was conducted according to the method of Winter et al. (J. Pharm. Exp. Ther., Vol.141, 369 (1963)). The test samples suspended in Tween 80 were administered orally to SD rats (6 rats per 1 group) in an amount of 1 ml per 100 g of the body weight, while only the solvent was administered in the same manner as above as a control. One hour after the administration, 1% carrageenan physiological saline was injected subcutaneously to the rats in the plantar area of the right hind paw. Three hours after the carrageenan administration, the paw volumes were measured and the edematization rate (%) was calculated with Formula 1 and then edematization suppression rate (%) was calculated with Formula 2.
Edematization rate (%)=((paw volume after carrageenan injection- paw volume before carrageenan injection)/(paw volume before carrageenan injection)×100 Formula: 1
Edematization suppression rate (%)=((edematization rate of control-
edematization rate of test samples)/edematization rate of […]

T1 sequence (P23219 24-599): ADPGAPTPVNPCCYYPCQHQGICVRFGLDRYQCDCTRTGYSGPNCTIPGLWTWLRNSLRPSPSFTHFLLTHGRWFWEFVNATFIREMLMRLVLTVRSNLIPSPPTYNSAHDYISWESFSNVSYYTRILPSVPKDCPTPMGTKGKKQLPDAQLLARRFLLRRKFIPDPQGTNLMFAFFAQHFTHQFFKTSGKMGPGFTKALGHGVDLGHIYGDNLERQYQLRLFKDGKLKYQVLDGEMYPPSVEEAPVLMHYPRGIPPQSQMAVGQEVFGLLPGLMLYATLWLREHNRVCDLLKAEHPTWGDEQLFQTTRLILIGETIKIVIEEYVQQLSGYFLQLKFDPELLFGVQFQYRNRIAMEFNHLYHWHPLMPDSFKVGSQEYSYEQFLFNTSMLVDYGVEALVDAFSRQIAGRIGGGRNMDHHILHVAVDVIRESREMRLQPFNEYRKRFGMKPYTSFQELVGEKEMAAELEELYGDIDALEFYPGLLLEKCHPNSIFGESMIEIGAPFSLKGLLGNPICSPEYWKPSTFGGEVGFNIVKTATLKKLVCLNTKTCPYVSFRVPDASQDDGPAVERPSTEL

SMILES | IC50 (Human COX-1) [nM] | IC50 (Human COX-2) [nM] | COX-1/COX-2 (Human COX-2) | Edematization Suppression rate (carrageenan footedema) [%]
Cc1cc(-c2cccc(N(C)C)c2)c(-c2ccc(S(C)(=O)=O)cc2)[nH]1 [Preparation Example 23, 4-(3-dimethylaminophenyl)-2-methyl-5-(4-methylsulfonylphenyl)-1H-pyrrole] | – | 346 | > 289 | –
COc1ccc(-c2cc(C)[nH]c2-c2ccc(OC)cc2)cc1 [Control compound (a), 4,5-bis(4-methoxyphenyl)-2-methyl-1H-pyrrole, reference compound] | 1 | 4820 | < 0.1 | 23.4
Cc1cc(-c2ccc(F)c(Cl)c2)c(-c2ccc(S(C)(=O)=O)cc2)[nH]1 [Preparation Example 10, 4-(3-chloro-4-fluorophenyl)-2-methyl-5-(4-methylsulfonylphenyl)-1H-pyrrole] | 84000 | 274 | 307 | 25.7
CCc1cc(-c2ccc(F)cc2)c(-c2ccc(S(C)(=O)=O)cc2)[nH]1 [Preparation Example 11, 2-ethyl-4-(4-fluorophenyl)-5-(4-methylsulfonylphenyl)-1H-pyrrole] | 9900 | 84 | 118 | –
Cc1cc(-c2ccc(N(C)C)cc2)c(-c2ccc(S(C)(=O)=O)cc2)[nH]1 [Preparation Example 19, 4-(4-dimethylaminophenyl)-2-methyl-5-(4-methylsulfonylphenyl)-1H-pyrrole] | – | 747 | > 134 | 43.2
Cc1cc(-c2cccc(Cl)c2)c(-c2ccc(S(C)(=O)=O)cc2)[nH]1 [Preparation Example 4, 4-(3-chlorophenyl)-2-methyl-5-(4-methylsulfonylphenyl)-1H-pyrrole] | > 100000 | 164 | > 610 | 30.1
Cc1cc(-c2ccc(F)cc2F)c(-c2ccc(S(C)(=O)=O)cc2)[nH]1 [Preparation Example 7, 4-(2,4-difluorophenyl)-2-methyl-5-(4-methylsulfonylphenyl)-1H-pyrrole] | 30600 | 144 | 212 | 34.5
Cc1cc(-c2ccc(F)c(F)c2)c(-c2ccc(S(C)(=O)=O)cc2)[nH]1 [Preparation Example 8, 4-(3,4-difluorophenyl)-2-methyl-5-(4-methylsulfonylphenyl)-1H-pyrrole] | 26700 | 219 | > 457 | 26.7
CSc1ccc(-c2cc(C)[nH]c2-c2ccc(S(C)(=O)=O)cc2)cc1 [Preparation Example 18, 4-(4-methylthiophenyl)-2-methyl-5-(4-methylsulfonylphenyl)-1H-pyrrole] | 12600 | 123 | 102 | 48.9
Cc1cccc(-c2cc(C)[nH]c2-c2ccc(S(C)(=O)=O)cc2)c1 [Preparation Example 21, 4-(3-methylphenyl)-2-methyl-5-(4-methylsulfonylphenyl)-1H-pyrrole] | 39200 | 129 | 304 | 31.6

Continued, in another order:

IC50 (Human COX-1) [nM] | IC50 (Human COX-2) [nM] | COX-1/COX-2 (Human COX-2) | SMILES | Edematization Suppression rate (carrageenan footedema) [%]
50400 | 110 | 458 | Cc1cc(-c2ccc(F)c(F)c2F)c(-c2ccc(S(C)(=O)=O)cc2)[nH]1 [Preparation Example 52, 4-(2,3,4-trifluorophenyl)-2-methyl-5-(4-methylsulfonylphenyl)-1H-pyrrole] | –
– | 300 | > 339 | Cc1cc(C#Cc2ccccc2)c(-c2ccc(S(C)(=O)=O)cc2)[nH]1 [Preparation Example 48, 4-phenylethynyl-2-methyl-5-(4-methylsulfonylphenyl)-1H-pyrrole] | 40.1
– | 442 | > 226 | Cc1cc(-c2ccc(N(C)C)c(C)c2)c(-c2ccc(S(C)(=O)=O)cc2)[nH]1 [Preparation Example 32, 4-(4-N,N-dimethylamino-3-methylphenyl)-2-methyl-5-(4-methylsulfonylphenyl)-1H-pyrrole] | –
– | 310 | > 323 | COc1ccc(-c2cc(C)[nH]c2-c2ccc(S(C)(=O)=O)cc2)cc1Cl [Preparation Example 28, 4-(3-chloro-4-methoxyphenyl)-2-methyl-5-(4-methylsulfonylphenyl)-1H-pyrrole] | –
– | 162 | 617 | Cc1cc(F)cc(-c2cc(C)[nH]c2-c2ccc(S(C)(=O)=O)cc2)c1 [Preparation Example 53, 4-(3-fluoro-5-methylphenyl)-2-methyl-5-(4-methylsulfonylphenyl)-1H-pyrrole] | –
– | 454 | > 220 | CS(=O)(=O)c1ccc(-c2[nH]c(CCC(=O)O)cc2-c2ccc(F)cc2)cc1 [Preparation Example 50, 4-(4-fluorophenyl)-5-(4-methylsulfonylphenyl)-1H-pyrrole-2-propionic acid] | 28.9
